Laboratory results: the supplement of paper PMC10307832

Legend:
Assay in all cases: relative viability (nuclei count vs DMSO), 5 days (fraction); higher = more cells survive
[1] = compound: C[C@]12O[C@H](C[C@]1(O)CO)n1c3ccccc3c3c4c(c5c6ccccc6n2c5c31)CNC4=O [Lestaurtinib] + Cc1nc(NC(=O)N2CCC[C@H]2C(N)=O)sc1-c1ccnc(C(C)(C)C(F)(F)F)c1 [Alpelisib] (partner 2 µM)
Summary of the method: (§1)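 Medians of duplicate plates are given as relative viability. That measure is the nuclei count in treated wells divided by the count in vehicle wells. Counts were taken on 4× images of lung cancer cell lines in 1536-well plates, 5 days after pin-tool dosing the day after seeding with one drug alone or a fixed anchor-drug dose plus five library-drug doses (not always all listed) in √10 steps.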

[2] = compound: C[C@]12O[C@H](C[C@]1(O)CO)n1c3ccccc3c3c4c(c5c6ccccc6n2c5c31)CNC4=O [Lestaurtinib] + COc1cccc2cc(-c3nc([C@H]4CC[C@H](C(=O)O)CC4)n4ncnc(N)c34)[nH]c12 [OSI-027] (partner 0.5 µM)
Summary of the method: as §1

[3] = compound: C[C@]12O[C@H](C[C@]1(O)CO)n1c3ccccc3c3c4c(c5c6ccccc6n2c5c31)CNC4=O [Lestaurtinib] + C[C@@H](Oc1cc(-c2cnn(C3CCNCC3)c2)cnc1N)c1c(Cl)ccc(F)c1Cl [Crizotinib] (partner 1 µM)
Summary of the method: as §1

[4] = compound: C[C@]12O[C@H](C[C@]1(O)CO)n1c3ccccc3c3c4c(c5c6ccccc6n2c5c31)CNC4=O [Lestaurtinib] + COc1cc2c(Oc3ccc(NC(=O)C4(C(=O)Nc5ccc(F)cc5)CC4)cc3F)ccnc2cc1OCCCN1CCOCC1 [Foretinib] (partner 0.25 µM)
Summary of the method: as §1

Cell Line | relative viability ([1]; first compound 0.005 µM) | relative viability ([1]; first compound 0.01581 µM) | relative viability ([1]; first compound 0.05 µM) | relative viability ([1]; first compound 0.1581 µM) | relative viability ([1]; first compound 0.5 µM) | relative viability ([2]; first compound 0.005 µM) | relative viability ([2]; first compound 0.01581 µM) | relative viability ([2]; first compound 0.05 µM) | relative viability ([2]; first compound 0.1581 µM) | relative viability ([2]; first compound 0.5 µM) | relative viability ([3]; first compound 0.005 µM) | relative viability ([3]; first compound 0.01581 µM) | relative viability ([3]; first compound 0.05 µM) | relative viability ([3]; first compound 0.1581 µM) | relative viability ([3]; first compound 0.5 µM) | relative viability ([4]; first compound 0.005 µM) | relative viability ([4]; first compound 0.01581 µM) | relative viability ([4]; first compound 0.05 µM) | relative viability ([4]; first compound 0.1581 µM) | relative viability ([4]; first compound 0.5 µM)
HCC-827 | 0.948 | 0.905 | 0.862 | 0.585 | 0.311 | 0.781 | 0.727 | 0.459 | 0.626 | 0.659 | 0.911 | 1.08 | 0.85 | 0.71 | 0.335 | 1.02 | 1.02 | 0.835 | 0.803 | 0.202
HOP-62 | 1.05 | 0.919 | 1.17 | 0.775 | 0.436 | 0.936 | 0.958 | 0.498 | 0.643 | 0.415 | 0.905 | 0.919 | 0.972 | 0.721 | 0.18 | 1.15 | 1.33 | 1.08 | 1.06 | 0.343
LC-2-ad | 0.961 | 0.829 | 0.354 | 0.227 | 0.139 | 0.892 | 0.783 | 0.506 | 0.483 | 0.304 | 0.467 | 0.325 | 0.433 | 0.366 | 0.251 | 0.946 | 0.903 | 0.817 | 0.647 | 0.324
LCLC-97TM1 | 0.256 | 0.189 | 0.171 | 0.138 | 0.148 | 0.547 | 0.42 | 0.125 | 0.215 | 0.182 | 0.382 | 0.293 | 0.241 | 0.259 | 0.149 | 0.925 | 1.08 | 0.556 | 0.462 | 0.238
LCLC-103H | 1.06 | 0.991 | 0.678 | 0.683 | 0.651 | 0.442 | 0.49 | 0.349 | 0.385 | 0.286 | 1.11 | 1.02 | 0.867 | 0.761 | 0.593 | 0.752 | 0.848 | 0.547 | 0.485 | 0.261
LK-2 | 1.37 | 0.97 | 1.01 | 0.647 | 0.365 | 0.158 | 0.224 | 0.176 | 0.185 | 0.173 | 0.241 | 0.264 | 0.267 | 0.188 | 0.188 | 1.16 | 1.19 | 0.683 | 0.774 | 0.309
LOU-NH91 | 0.757 | 0.666 | 0.623 | 0.472 | 0.416 | 0.728 | 0.711 | 0.637 | 0.574 | 0.424 | 0.755 | 0.718 | 0.627 | 0.547 | 0.469 | 0.921 | 0.842 | 0.844 | 0.651 | 0.459
LU99A | 0.413 | 0.488 | 0.233 | 0.283 | 0.192 | 0.288 | 0.263 | 0.262 | 0.249 | 0.203 | 0.606 | 0.49 | 0.275 | 0.314 | 0.162 | 0.733 | 0.73 | 0.575 | 0.469 | 0.247
